Experimental data published in PMC10454728, “A Comparative Study on the Lysosomal Cation Channel TMEM175 Using Automated Whole-Cell Patch-Clamp, Lysosomal Patch-Clamp, and Solid Supported Membrane-Based Electrophysiology: Functional Characterization and High-Throughput Screening Assay Development” (International Journal of Molecular Sciences, 2023).
Where “and” joins values, the source holds several entries; their conditions need not be identical. Equal values may be shown once. Entries after “also recorded” stand apart in the source; their conditions may differ. Read-outs that look alike come from different tables or passages of the source. Each block holds one molecule with its values, some of them ahead of it.

Key:
TMEM175 [1] = biological target: T1, TMEM175 (Homo sapiens, UniProt Q9BSA9); experiment: SSME K+ flux compound assay on purified lysosomes overexpressing TMEM175 (SURFE2R 96SE); assay type: biochemical
T1 sequence (Q9BSA9 1-504): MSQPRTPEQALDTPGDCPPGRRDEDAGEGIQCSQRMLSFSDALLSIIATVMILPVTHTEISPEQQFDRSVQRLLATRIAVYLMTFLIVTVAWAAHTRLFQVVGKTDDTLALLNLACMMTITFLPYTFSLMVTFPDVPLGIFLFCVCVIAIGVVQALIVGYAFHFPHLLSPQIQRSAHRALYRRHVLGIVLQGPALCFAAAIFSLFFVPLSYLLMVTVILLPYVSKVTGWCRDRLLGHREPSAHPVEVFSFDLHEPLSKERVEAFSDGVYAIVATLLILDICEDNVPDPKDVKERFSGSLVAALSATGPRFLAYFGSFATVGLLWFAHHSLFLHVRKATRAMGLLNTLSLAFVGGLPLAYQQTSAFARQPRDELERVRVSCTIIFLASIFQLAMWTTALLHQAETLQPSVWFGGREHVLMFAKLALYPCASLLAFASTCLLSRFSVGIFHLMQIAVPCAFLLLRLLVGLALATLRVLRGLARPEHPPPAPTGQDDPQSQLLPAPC
Experimental: In brief, compound measurements using SSME are performed in a three-step process (Figure 6B). First, TMEM175-mediated K^+ translocation is measured through 50 mM K^+ concentration jumps. This represents the baseline current of TMEM175 activity (I0). […] Third, the activation through a 50 mM K^+ concentration jump is repeated, this time in the presence of the compound to record the modulated TMEM175 current (I). In this process, each individual sensor of the 96-well sensor plate is only exposed to a single concentration of the compound. The relative current amplitude I/I0 is used as a measure of the compound effect and averaged across sensors.
We applied 50 mM K^+ concentration jumps in the absence and presence of different compound concentrations to derive information about compound effects on K^+ flux through TMEM175; (B) Time dependence of recorded peak current amplitudes for the complete workflow, which involves multiple sequential measurements. […] The recording of each sensor well starts with the application of a control measurement, rinsing non-activating solution across the sensor (baseline recording). Afterwards, we performed three solution exchange measurements from 50 mM NaCl to 50 mM KCl to measure K^+ flux through TMEM175 (baseline TMEM175 current, I0). We then rinsed the sensor with non-activating solution containing the compound at a given concentration, followed by incubation of 15 min to equilibrate the sensors with the compound. Subsequently, the solution exchange from 50 mM NaCl to 50 mM KCl is repeated twice, but in the presence of the given compound concentration to determine the modulated peak current I. Afterwards, we repeated the measurement in the absence of the compound three times (wash-out) to recover the non-modulated TMEM175 current. We subtracted the average artifact current recorded with control lysosomes from I and I0 (Figure 1K), without considering off-target effects of the tested compound. […] Success rates were determined based on the QC criteria provided in the Methods section. […] We determined average values, AVGpos and AVGneg, and standard deviations, SDpos and SDneg, of the recorded peak currents. […] Error bars represent the SEM obtained from automated data analysis using DataControl96, based on variations of the currents obtained with the TMEM175 sample. Each compound concentration was recorded with at least N = 8 sensors. […] Imin was always fixed to 0 for inhibitors or 1 for enhancers, as indicated. […] A total of 50 µL of 0.1 mM octadecanethiol in isopropanol was added to each sensor well, following incubation for 30 min at room temperature to form an alkanethiol monolayer on the sensor surface. Subsequently, the sensors were washed twice with isopropanol and three times with ddH2O, before dry-tapping on a tissue. The subsequent process of sensor coating with lipid and lysosomes was carried out manually for the SURFE^2R N1 and automated with the SURFE^2R 96SE serving as a pipetting robot. In both cases, 1.5 µL of 7.5 mg/mL 1,2-diphytanoyl-sn-glycero-3-phosphocholine (DPhPC) in n-decane was added to the center of the circular gold surface, followed by the addition of 50 µL of non-activating solution to form the SSM. The composition of the non-activating solution was adjusted for each experiment (Table 2). […] SSM-coated 96-well sensor plates were stored at −80 °C before use.

TMEM175 [2] = conditions: cited from earlier work; for IC50: read-out: IC50, literature
TMEM175 [3] = biological target: T1, TMEM175; experiment: SSME K+ flux on TMEM175 lysosomes (SURFE2R N1): pH, pH gradient, intra-lysosomal application
[4] = test system: control lysosomes purified from HEK293 cells expressing endogenous TMEM175; experiment: SSME off-target compound effects on control lysosomes (SURFE2R N1)
TMEM175 [5] = biological target: T1, TMEM175; experiment: Whole-cell automated patch-clamp (APC) Cs+ flux assay, SyncroPatch 384i, HEK293 overexpressing TMEM175; assay type: cell-based
Experimental: To validate the APC assay, we compared currents between TMEM175-overexpressing cells and control HEK293 UT cells. […] In our compound application protocol, which was used to evaluate compound potencies, we consistently administered tool compounds to assess their impact on TMEM175 activity (Figure 7C).
The voltage protocol generation and data collection were performed with PatchControl384 v1.9.0 and analyzed with DataControl384 v2.2.0. A multi-hole, medium resistance chip with four patch-clamp holes per well was used for recording.
DMSO remained constant at 0.2% and BSA at 0.05% in the external solution throughout the assay, if not stated otherwise.
The voltage protocol applied for the investigation of the tool compounds (Figure 7) consisted of a 500 ms ramp from −80 mV to +80 mV, followed by a 400 ms step from −80 mV to +80 mV before returning to the holding potential of 0 mV (Figure 7B). The maximum outward current amplitude obtained at +80 mV from the ramp section was used for analysis. To investigate the blinded test compounds (Figure 8), an alternative voltage protocol was applied. […] The maximum outward current amplitude obtained at 0 mV from the voltage step section was used for analysis. In both voltage protocols, voltage sweeps were repeated every 10 s and currents sampled at 10 kHz.
The application protocol for agonists consisted of two additions of extracellular physiological solution for a minimum of 3 min, followed by the external application of the test compound for a minimum of 2 min (Figure 7C).
Currents recorded after compound addition were normalized to the baseline current before compound addition, averaged, and plotted over the compound concentration to determine the EC50 and IC50 values.

[6] = Table 4 fit, currents normalized to current before compound
[7] = from dose-response fit, Figure 8

SMILES: Nc1ccncc1 [4-AP, 4-aminopyridine]
Effect of 10 mM compound on TMEM175 K+ current, SSME (TMEM175 [1]; 50 mM K+ jump): full block
Effect of 4-AP, SSME (SURFE2R N1) (TMEM175 [3]; pH 4.0 (no TMEM175 activity at this pH)): no effect
Off-target signal potentiation on control lysosomes ([4]; 10 mM 4-AP): +380 pA
Artifact current of control lysosomes in presence of compound ([4]; 10 mM 4-AP, 50 mM K+ jump): −0.69 ± 0.37 nA
Off-target effect compared to effect on TMEM175 lysosomes ([4]; 10 mM 4-AP, opposite direction): ~ 8%
Effect on current of control lysosomes, H+ influx (pH jump) ([4]; 10 mM 4-AP, ΔpH 3.0): did not affect
Signal block, APC (TMEM175 [5]; 1 mM 4-AP, over 125 plates): 73 ± 14%

SMILES: CCCCC1(C2CCCC2)Cc2cc(OCCCC(=O)O)c(Cl)c(Cl)c2C1=O (stereo not drawn) [DCPIB]
EC50 (TMEM175 [1]; tool enhancers, K+ flux, 50 mM K+ jump, pH 7.6, 0 mV, artifact-corrected, read-out: Half saturation (EC50), SSME): 9.6 µM
Increase in K+ flux through TMEM175, literature (TMEM175 [2]; 50 µM, +80 mV, ref [6]): eight-fold
Control current in presence of compound ([4]; 20 µM DCPIB): +0.69 ± 0.41 nA
Off-target effect compared to effect on TMEM175 lysosomes ([4]; 20 µM DCPIB): ~ 35%
EC50 (TMEM175 [5]): 16.7 µM

n (Hill coefficient), SSME (TMEM175 [1]; Table 4 fit): 0.89 ± 0.6
Imax − Imin (nA), SSME (TMEM175 [1]; [6]): 0.09 ± 0.04 ^1 nA
Potentiation, SSME (TMEM175 [1]; [7]): 9 ± 4%
n (Hill coefficient), APC (TMEM175 [5]; Table 4 fit): 1.17 ± 0.38
Imax − Imin (nA), APC (TMEM175 [5]; [6]): 2.45 ± 1.02 nA
Current potentiation, APC (TMEM175 [5]; [7]): 245 ± 102% and 345 ± 102%
EC50 (TMEM175 [5]; test-compound voltage protocol, outward current at 0 mV, not corrected for off-target effects, read-out: EC50 (µM), APC): 62 µM and 61.8 µM
SMILES: CCOC(=O)C1=C(N)Oc2ccc(Cl)cc2C1C(C#N)C(=O)OCC (stereo not drawn) [SC-79]
Increase in TMEM175-mediated K+ flux, literature (TMEM175 [2]; 10 µM, +80 mV, ref [48]): two-fold
Effect on TMEM175 in whole-cell patch-clamp, literature (TMEM175 [2]; ref [6]): did not find any effect
Control current in presence of compound ([4]; 30 µM SC-79): −0.64 ± 0.27 nA

Effect of 10 mM compound on TMEM175 K+ current, SSME (TMEM175 [1]; 50 mM K+ jump): full block
IC50 in SSME relative to literature value (higher) (TMEM175 [1]; 4-AP vs largest literature value for K+ flux, zinc vs literature value): 50 fold
IC50 (TMEM175 [1]; K+ flux, 50 mM K+ jump, pH 7.6, 0 mV, external (cytosolic side) application, artifact-corrected, read-out: Half saturation (IC50), SSME): 1530 µM
Relative current, SSME (TMEM175 [1]; at 10 mM (highest concentration), relative to TMEM175 baseline current (100%)): 19.2 ± 4.6% (10 mM)
Effect at 50 µM, SSME (TMEM175 [3]; 50 µM zinc, lysosomal side (similar to external application)): did not observe any effect
IC50 (TMEM175 [3]; read-out: IC50, intra-lysosomal application, SSME (SURFE2R N1), lysosomes pre-loaded with zinc, zinc only inside): 700 ± 300 µM
Signal enhancement, APC (TMEM175 [5]; 0.5 mM ZnCl2, over 125 plates): 301 ± 94%
Relative current, APC (TMEM175 [5]; enhancers, (50 µM), relative to baseline current (100%)): 400 ± 40% (50 µM)
EC50 (TMEM175 [5]; tool compounds, Cs+ flux, outward current at +80 mV, 0.05% BSA, read-out: Half saturation (EC50), APC): 102 µM
SMILES: [Cl-].[Cl-].[Zn+2] [Zn, ZnCl2]
IC50 (TMEM175 [2]; whole-organelle patch-clamp, ref [1]): 38 ± 13 µM
Off-target effect on control lysosomes ([4]; zinc, two highest concentrations): off-target inhibition
Effect of raising zinc up to 10 mM, APC (TMEM175 [5]; 0.5 mM to 10 mM, listed as zinc): could not find any changes; also recorded: without further impacting the recorded currents
